Data on ten compounds can be found in ChEMBL document CHEMBL1201862, “PubChem BioAssay data set” (2004).

Each structure is given as a SMILES string.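 Assay format: 96-well plates, 48-hour exposure. Abbreviation: GI50, concentration required for 50% inhibition of growth.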 Calls of active or inactive are those of the source. Cut-off read from the data, not from the text of the source: active = GI50 up to about 1.1 µM and inactive = higher.

Among the test systems are 786-0; A549; ACHN; BT-549; DU-145; EKVX; HCT-116; K562; LOX IMVI; MDA-MB-231; Malme-3M; NCI-H226; NCI/ADR-RES; RPMI-8226; SF-268; SK-MEL-2; SK-OV-3; SNB-19; SNB-75; SW-620.
Common to all, as to assay: NCI-60 cell line screen, 48 h

In the case of `CCOC(=O)CCC(NC(=O)c1ccc(Nc2nc3ccccc3nc2-c2cccs2)cc1)C(=O)OCC` (stereo not given), the GI50 with 786-0 is 32.4 µM (inactive); with A549 it was 63.2 µM (inactive); with ACHN it was 31 µM (inactive); with BT-549, 23.6 µM (inactive); in the assay with DU-145, 29.8 µM (inactive); with EKVX, 31.6 µM (inactive). Moreover, the GI50 is 28.4 µM (inactive) in the assay on HCT-116; 12.1 µM (inactive) with K562; 23.1 µM (inactive) in the assay with LOX IMVI; 27.3 µM (inactive) in the assay on MDA-MB-231; 24.1 µM (inactive) with Malme-3M; 26.6 µM (inactive) with NCI-H226. In addition, the GI50 in the assay with NCI/ADR-RES was 21.3 µM (inactive); in the assay on RPMI-8226, 7.53 µM (inactive); with SF-268, 27.1 µM (inactive); in the assay on SK-MEL-2, 31.2 µM (inactive); in the assay on SK-OV-3, 28.6 µM (inactive); in the assay on SNB-19, 29.2 µM (inactive). Besides, the GI50 in the assay on SNB-75 is 36.3 µM (inactive); in the assay on SW-620, 33.8 µM (inactive).

With `CN(C)CCOc1ccc2c(c1)C/C(=C/c1ncc([N+](=O)[O-])n1C)C2=O`, the GI50 in the assay with 786-0 is 1.82 µM (inactive); in the assay on A549, 1.17 µM (inactive); with ACHN, 1.36 µM (inactive); with BT-549, 1.04 µM (active); in the assay on DU-145, 3.13 µM (inactive); with EKVX, 3.61 µM (inactive). Further, the GI50 with HCT-116 is 1.27 µM (inactive); with K562, 1.49 µM (inactive); with LOX IMVI, 2.65 µM (inactive); in the assay with MDA-MB-231, 1.91 µM (inactive); with Malme-3M it was 1.94 µM (inactive); in the assay on NCI-H226, 1.46 µM (inactive). In addition, the GI50 in the assay on NCI/ADR-RES was 8.36 µM (inactive); with RPMI-8226 it was 1.37 µM (inactive); in the assay with SF-268, 1.89 µM (inactive); in the assay with SK-MEL-2, 1.67 µM (inactive); in the assay on SK-OV-3 it was 4.8 µM (inactive); in the assay with SNB-19, 3.39 µM (inactive). The GI50 in the assay with SNB-75 is 2.28 µM (inactive); with SW-620, 1.6 µM (inactive).

As for `CC(=O)OC/C=C/[C@H](O[Si](C)(C)C(C)(C)C)[C@@H](O)/C=C/COC(C)=O`, the GI50 in the assay with 786-0, in the assay with A549, in the assay on ACHN, in the assay with BT-549, with DU-145 and in the assay on EKVX was > 100 µM (inactive) in each case. The GI50 in the assay on HCT-116 was > 100 µM (inactive); in the assay on K562 it was 23 µM (inactive); with LOX IMVI, 76.6 µM (inactive); with MDA-MB-231, > 100 µM (inactive); in the assay with Malme-3M, > 100 µM (inactive); in the assay with NCI-H226 it was > 100 µM (inactive). The GI50 in the assay with NCI/ADR-RES was > 100 µM (inactive); with RPMI-8226, 20.6 µM (inactive); in the assay on SF-268, > 100 µM (inactive); in the assay on SK-MEL-2 it was > 100 µM (inactive); with SK-OV-3, > 100 µM (inactive); in the assay on SNB-19, > 100 µM (inactive). Moreover, the results for the GI50 with SNB-75 and with SW-620 were 5.45 µM (inactive) and > 100 µM (inactive), respectively.

Regarding `Cc1cc2oc(C)c(S(=O)(=O)NC(=O)Nc3ccc(Cl)cc3)c(=O)c2c(=O)o1`, the GI50 in the assay with 786-0 is > 100 µM (inactive); in the assay with A549, > 100 µM (inactive); in the assay on ACHN, 59.4 µM (inactive); in the assay on BT-549, > 100 µM (inactive); in the assay on DU-145 it was > 100 µM (inactive); in the assay with EKVX, > 100 µM (inactive). Further, the GI50 with HCT-116, in the assay on K562, with LOX IMVI, with MDA-MB-231, in the assay with Malme-3M and in the assay on NCI-H226 was > 100 µM (inactive) in each case. Further, the GI50 with NCI/ADR-RES, in the assay on RPMI-8226, with SF-268, with SK-MEL-2, in the assay with SK-OV-3 and in the assay with SNB-19 was > 100 µM (inactive) each time. Besides, the GI50 with SNB-75 and with SW-620 was > 100 µM (inactive) in each case.

Turning to `O=C1C(C(c2ccccc2)N2CCOCC2)=C(O)C(c2ccccc2)N1c1ccccc1` (stereo not given), the GI50 with 786-0, in the assay with A549, in the assay on ACHN, with BT-549, in the assay with DU-145 and in the assay on EKVX was > 10 µM (inactive) each time. Moreover, the GI50 in the assay on HCT-116 was > 10 µM (inactive); in the assay with K562 it was > 10 µM (inactive); in the assay on LOX IMVI, > 10 µM (inactive); with MDA-MB-231, > 10 µM (inactive); in the assay with Malme-3M it was 3.05 µM (inactive); in the assay on NCI-H226, > 10 µM (inactive). Moreover, the GI50 with NCI/ADR-RES, with RPMI-8226, in the assay on SF-268, in the assay with SK-MEL-2, with SK-OV-3 and with SNB-19 was > 10 µM (inactive) each time. Also, the GI50 in the assay with SNB-75 is 3.58 µM (inactive); with SW-620 it was > 10 µM (inactive).

Turning to `C#CCN(Cc1ccc2nc(OC)c(OC)nc2c1)c1cc(OC)c(OC)c(OC)c1`, the GI50 in the assay on 786-0 was 24 µM (inactive); with A549 it was 18.4 µM (inactive); in the assay with ACHN it was 21 µM (inactive); in the assay with BT-549, 15.4 µM (inactive); in the assay with DU-145, 27.6 µM (inactive); with EKVX, 14.8 µM (inactive). Also, the GI50 in the assay on HCT-116 is 16.7 µM (inactive); with K562 it was 3.98 µM (inactive); in the assay with LOX IMVI, 11.7 µM (inactive); in the assay with MDA-MB-231, 12.1 µM (inactive); in the assay on Malme-3M it was 23 µM (inactive); with NCI-H226, 15.7 µM (inactive). Further, the GI50 in the assay with NCI/ADR-RES was 10.7 µM (inactive); with RPMI-8226, 5.6 µM (inactive); in the assay on SF-268 it was 25.1 µM (inactive); in the assay on SK-MEL-2, 23.1 µM (inactive); in the assay on SK-OV-3, 24.5 µM (inactive); in the assay with SNB-19 it was 26.6 µM (inactive). For the same compound, the results for the GI50 with SNB-75 and in the assay with SW-620 were 33.7 µM (inactive) and 30.2 µM (inactive), respectively.

In the case of `N=c1oc2ccc(Cl)cc2cc1C(=O)NCc1ccccc1`, the GI50 in the assay on 786-0 is > 100 µM (inactive); in the assay on A549 it was > 100 µM (inactive); in the assay with ACHN, > 91.8 µM (inactive); in the assay with BT-549, 23.7 µM (inactive); in the assay with DU-145 it was > 100 µM (inactive); in the assay with EKVX it was > 100 µM (inactive). For the same compound, the GI50 in the assay on HCT-116 is > 100 µM (inactive); in the assay on K562 it was > 42 µM (inactive); with LOX IMVI, > 100 µM (inactive); in the assay on MDA-MB-231, > 100 µM (inactive); in the assay with Malme-3M, 18.4 µM (inactive); in the assay on NCI-H226 it was > 100 µM (inactive). Further, the GI50 in the assay on NCI/ADR-RES was 27.4 µM (inactive); in the assay on RPMI-8226, > 89.3 µM (inactive); with SF-268, > 100 µM (inactive); in the assay with SK-MEL-2, 51.1 µM (inactive); in the assay with SK-OV-3 it was > 100 µM (inactive); in the assay on SNB-19, > 100 µM (inactive). The GI50 was 22.4 µM (inactive) in the assay with SNB-75 and > 100 µM (inactive) in the assay with SW-620.

For the compound `CCN(CC)C(=O)N[C@@H](Cc1ccccc1)C(=O)NC`, the GI50 in the assay with 786-0, in the assay on A549, in the assay with ACHN, in the assay on BT-549, in the assay on DU-145 and in the assay on EKVX was > 100 µM (inactive) in each case. Moreover, the GI50 in the assay with HCT-116, with K562, in the assay with LOX IMVI, in the assay on MDA-MB-231, in the assay with Malme-3M and with NCI-H226 was > 100 µM (inactive) throughout. Further, the GI50 in the assay with NCI/ADR-RES, in the assay with RPMI-8226, in the assay with SF-268, in the assay with SK-MEL-2, with SK-OV-3 and in the assay on SNB-19 was > 100 µM (inactive) in each case. Besides, the GI50 in the assay with SNB-75 and in the assay on SW-620 was > 100 µM (inactive) in each case.

On to `CCOC(=O)/C(C(C)=O)=C(\OC(C)=O)c1ccncc1C(=O)O`, for which the GI50 in the assay on 786-0, in the assay on A549, in the assay with ACHN, in the assay with BT-549, in the assay on DU-145 and in the assay on EKVX was > 100 µM (inactive) each time. The GI50 with HCT-116, in the assay on K562, with LOX IMVI, in the assay on MDA-MB-231, in the assay on Malme-3M and in the assay on NCI-H226 was > 100 µM (inactive) throughout. Also, the GI50 in the assay with NCI/ADR-RES, in the assay on RPMI-8226, in the assay on SF-268, with SK-MEL-2, in the assay on SK-OV-3 and in the assay with SNB-19 was > 100 µM (inactive) each time. In addition, the GI50 with SNB-75 and in the assay on SW-620 was > 100 µM (inactive) throughout.

In the case of `O=P1(N(CCCl)CCCl)NCCCO1` (stereo not given) [CYCLOPHOSPHAMIDE ANHYDROUS], the GI50 in the assay on 786-0 was > 250 µM (inactive); in the assay on A549, > 239 µM (inactive); with ACHN, > 250 µM (inactive); in the assay on BT-549, > 250 µM (inactive); in the assay with DU-145 it was > 250 µM (inactive); in the assay on EKVX, > 250 µM (inactive). For the same compound, the GI50 was > 250 µM (inactive) in the assay with HCT-116; 213 µM (inactive) with K562; 248 µM (inactive) in the assay on LOX IMVI; > 250 µM (inactive) in the assay on MDA-MB-231; > 250 µM (inactive) with Malme-3M; 249 µM (inactive) with NCI-H226. Moreover, the GI50 with NCI/ADR-RES was > 250 µM (inactive); in the assay on RPMI-8226, > 250 µM (inactive); with SF-268, > 250 µM (inactive); in the assay on SK-MEL-2, > 238 µM (inactive); in the assay on SK-OV-3 it was 248 µM (inactive); in the assay on SNB-19 it was > 250 µM (inactive). Also, the GI50 in the assay on SNB-75 was > 232 µM (inactive); with SW-620 it was > 250 µM (inactive).
